According to patent US20240349724A1, “ANTIMICROBIAL COMPOSITIONS EFFECTIVE AGAINST BACTERIA AND FUNGUS” (TerMir Inc., priority 2017, published 2024):
In brackets after ≈: the same amount, converted by molar mass. Several values for one entry are separate records, joined by “and”; a condition that tells them apart may be missing. Equal values may be shown once. Read-outs that look alike come from different tables or passages of the source.

Columns and labels:
[1] = system: Bacillus subtilis ATCC 15841; assay: CLSI M07-A10 microdilution / checkerboard MIC; type: cell-based; details: for Reduced PhlB: fraction of PhlB dosage
Experimental: (§1) Tests are conducted according to the 2015 Clinical and Laboratory Standards Institute Method M07-A10: Methods for dilution antimicrobial susceptibility tests for bacteria that grow aerobically. Sterile 96-well microplates are prepared with Meuller Hinton Broth containing varying amounts of test compounds in each well (100 μL per well). Then according to the CLSI M07-A10 microdilution assay, a row with a 2-fold serial dilution series with 10 different concentrations of the test compound are prepared along with three replicate rows for each combination of test organism and test compound. According to the CLSI M07-A10 microdilution combination (checkerboard) assay, an 8×8 well matrix containing two 2-fold serial dilution series of two test compounds arranged perpendicular to one another so that each concentration of compound 1 is prepared once with each combination of compound 2. One column with a 2-fold serial dilution series with 8 different concentrations of test compound 1 is prepared along with one column with a 2-fold serial dilution series with 8 different concentrations of test compound 2. One microplate for each combination of test organism and pair of test compounds is prepared in addition to a cell suspension of each test microorganism equivalent to a 0.5 McFarland turbidity standard using fresh isolated colonies grown on Meuller Hinton Agar. Each cell suspension is diluted in a 1:20 ratio in Meuller Hinton Broth and the microplate is inoculated by adding add 10 μL to each well. Microplates then incubate according to CLSI M07-A10.
(§2) Microplates are read and data was interpreted according to the following procedure: The minimum inhibitory concentration (MIC) is the minimum concentration of the test compound needed to cease growth of the organism, it encompasses microbe death as well as microbe loss of the ability to divide and grow. Supplemental light was used during the 24-hour incubation period. Light intensity ranged from 1259 and 4203 lux.

[2] = system: Rhizobium radiobacter ATCC 70069; assay: CLSI M07-A10 microdilution / checkerboard MIC; type: cell-based; details: for MIC: Agrobacterium radiobacter, ATCC70069, 24 h, read-out: MIC at 24 hours in Light, Fluorescein, R. radiobacter; for Reduced PhlB: fraction of PhlB dosage
Experimental: as §1, §2

[3] = system: Altemaria alternata ATCC 66981; assay: Mold microplate MIC (visible growth); type: cell-based, Alternaria alternata; details: for Reduced PhlB: fraction of PhlB dosage
Experimental: (§3) Mold: Culture Curvularia and Aspergillus on SDA at 35±1° C. for 7 days or until good sporulation is obtained. Culture Alternaria at 30±1° C. for 7 days or until good sporulation is obtained. Harvest sporulating colonies with 0.8-0.9% saline solution and transfer to a fresh tube. Allow heavy particles to settle for 5 minutes and transfer the upper homogeneous suspension to a sterile tube and mix via vortex for 15 seconds. Read and adjust the optical density to OD (530 nm): • Alternaria: 0.25-0.30 • Aspergillus: 0.09-0.13 • Curvularia: 0.25-0.30
(§4) During the Candida adjusted inoculum preparation, saline cell suspensions with optical densities equal to that of a 0.5 McFarland Equivalence Turbidity Standard were diluted 1:1000 in RPMI 1640, rather than 1:2000 as instructed in CLSI M27-A3. Alternaria was cultured at 30±1° C. for 7 days or until good sporulation was obtained.
(§5) Data Analysis/Reporting: Read microplates for visible growth (turbidity). Use the minimum inhibitory concentration (MIC).

[4] = system: Stenotrophomonos maltophilia ATCC 13637; assay: CLSI M07-A10 microdilution / checkerboard MIC; type: cell-based, Stenotrophomonas maltophilia; details: for Reduced PhlB: fraction of PhlB dosage
Experimental: as §1, §2

[5] = system: Ralstonia insidiosa ATCC 49129; assay: microbe, parasite or virus in culture; type: cell-based; details: for Reduced PhlB: fraction of PhlB dosage
Experimental: as §1, §2

[6] = system: Aspergillus niger ATCC 6275; assay: Mold microplate MIC (visible growth); type: cell-based; details: for Reduced PhlB: fraction of PhlB dosage
Experimental: as §3, §5

[7] = system: Candida albicans ATCC 10231; assay: Yeast microplate MIC (visible growth); type: cell-based; details: for Reduced PhlB: fraction of PhlB dosage
Experimental: Yeast: Culture Candida on Sabouraud Dextrose Agar (SDA) at 35±1° C. for 24-48 hours until colonies are approximately 2-3 mm in diameter. Suspend ˜5 colonies in 5 mL of sterile 0.8-0.9% saline solution. Vortex for 15 seconds. Adjust the cell density to that of a 0.5 McFarland Equivalence Turbidity Standard. Prepare adjusted inoculum: Dilute the cell suspension 1:2000 in RPMI 1640. Inoculate microplates by adding 100 μL to each applicable well.
as §4, §5

[8] = system: Curvularia lunata ATCC 12017; assay: Mold microplate MIC (visible growth); type: cell-based; details: for Reduced PhlB: fraction of PhlB dosage
Experimental: as §3, §5

[9] = system: Gram(−) bacteria; details: PhlB on its own; background statement; cited from earlier work
[10] = system: Gram(+) bacteria; details: background statement; cited from earlier work
[11] = B. subtilis, alone ('Trial' line)
[12] = R. radiobacter, alone ('Trial' line)
[13] = A. alternata, alone ('Trial' line)
[14] = S. maltophilia, alone ('Trial' line)
[15] = R. insidiosa, alone ('Trial' line)
[16] = C. albicans, alone ('Trial' line)

## N.N.O=S(=O)(O)O [Ammonium sulfate, ammonium sulfate]
[1]; [11]
  MIC at 24 hours in Light, Ammonium sulfate: 93800 µM
[2]; [12]
  MIC at 24 hours in Light, Ammonium sulfate: 93800 µM
[3]; [13]
  MIC at 24 hours in Light, Ammonium sulfate: 46874 µM
[4]; [14]
  MIC at 24 hours in Light, Ammonium sulfate: 375000 µM
[5]; [15]
  MIC at 24 hours in Light, Ammonium sulfate: 750000 µM
[6]; A. niger, alone ('Trial' line)
  MIC at 24 hours in Light, Ammonium sulfate: 93749 µM
[7]; [16]
  MIC at 24 hours in Light, Ammonium sulfate: 750000 µM

## O=C1OC2(c3ccc(O)cc3Oc3cc(O)ccc32)c2ccccc21 [Fluorescein, 3′,6′-dihydroxyspiro[2-benzofuran-3,9′-xanthene]-1-one]
[1]; Bacillus subtilis, ATCC15841, 24 h, read-out: MIC at 24 hours in Light, Fluorescein, B. subtilis, alone ('Trial' line)
  MIC: 62.5 µM
[2]; alone ('Trial' line)
  MIC: 0.98 µM
[2]; combined with PHL B (c2 of same line)
  MIC: 0.49 µM
[3]; Alternaria alternata, ATCC66981, 24 h, read-out: MIC at 24 hours in Light, Fluorescein, A. alternata, alone ('Trial' line)
  MIC: 15.7 µM (≈ 5.21 µg/mL)
[4]; Stenotrophomonas maltophilia, ATCC13637, 24 h, read-out: MIC at 24 hours in Light, Fluorescein, S. maltophilia, alone ('Trial' line)
  MIC: 7.8 µM
[5]; Ralstonia insidiosa, ATCC49129, 24 h, read-out: MIC at 24 hours in Light, Fluorescein, R. insidiosa, alone ('Trial' line)
  MIC: 7.8 µM
[6]; Aspergillus niger, ATCC6275, 24 h, read-out: MIC at 24 hours in Light, Fluorescein, A. niger, alone ('Trial' line)
  MIC: 1.86 µM (≈ 0.618 µg/mL)
[8]; Curvularia lunata, ATCC12017, 24 h, read-out: MIC at 24 hours in Light, Fluorescein, C. lunata, alone ('Trial' line)
  MIC: 15.7 µM (≈ 5.21 µg/mL)
[7]; Candida albicans, ATCC10231, 24 h, read-out: MIC at 24 hours in Light, Fluorescein, C. albicans, alone ('Trial' line)
  MIC: 2000 µM (≈ 665 µg/mL)

## [Na+].[Na+].[O-]B1OB2OB([O-])OB(O1)O2 [NaTetraBorate, sodium tetraborate]
[1]; [11]
  MIC at 24 hours in Light, NaTetraBorate: 10000 µM
[2]; [12]
  MIC at 24 hours in Light, NaTetraBorate: 2500 µM
[3]; [13]
  MIC at 24 hours in Light, NaTetraBorate: 625160 µM
[4]; [14]
  MIC at 24 hours in Light, NaTetraBorate: 5000 µM
[5]; [15]
  MIC at 24 hours in Light, NaTetraBorate: 10000 µM
[6]; A. niger, alone ('Trial' line)
  MIC at 24 hours in Light, NaTetraBorate: 2673 µM
[8]; C. lunata, alone ('Trial' line)
  MIC at 24 hours in Light, NaTetraBorate: 4999.50 µM
[7]; [16]
  MIC at 24 hours in Light, NaTetraBorate: 9999 µM

## O=C1OC2(c3cc(Br)c([O-])c(Br)c3Oc3c2cc(Br)c([O-])c3Br)c2c(Cl)c(Cl)c(Cl)c(Cl)c21.[Na+].[Na+] [PHL B, disodium salt of 2′,4′,5′,7′-tetrabromo-4,5,6,7-tetrachlorofluorescein]
[1]; [11]
  MIC at 24 hours in Light, PHL B: 0.98 µM and 0.49 µM
[1]; B. subtilis, with Fluorescein
  Reduced PhlB: ⅛ and ¼ and ½ and 1/16
[1]; B. subtilis, with NaTetraBorate
  Reduced PhlB: 3/98 and 3/49 and ⅛ and ¼ and ½
[2]; [12]
  MIC at 24 hours in Light, PHL B: 0.12 µM and 0.24 µM
[2]; R. radiobacter, with Fluorescein
  Reduced PhlB: ¼ and ½ and ⅛
[2]; R. radiobacter, with NaTetraBorate
  Reduced PhlB: ¼ and ½
[3]; [13]
  MIC at 24 hours in Light, PHL B: 1.93 µM and 3.62 µM
[3]; A. alternata, with Ammonium sulfate
  Reduced PhlB: ¼ and ½
[3]; A. alternata, with Fluorescein
  Reduced PhlB: ¼
[3]; A. alternata, with NaTetraBorate
  Reduced PhlB: ½
[9]
  control of Gram(−) bacteria: does not control Gram(−) bacteria
[4]; S. maltophilia, with Fluorescein
  Reduced PhlB: ⅛ and ¼ and ½ and 1/16
[4]; S. maltophilia, with NaTetraBorate
  Reduced PhlB: ⅛ and ¼ and ½
[5]; R. insidiosa, with Fluorescein
  Reduced PhlB: ⅛ and ¼ and ½ and 1/16
[5]; R. insidiosa, with NaTetraBorate
  Reduced PhlB: ⅛ and ¼ and ½
[6]; A. niger, alone ('Trial' line)
  MIC at 24 hours in Light, PHL B: 1.93 µM and 3.62 µM
[6]; A. niger, with Ammonium sulfate
  Reduced PhlB: ¼ and ½
[6]; A. niger, with Fluorescein
  Reduced PhlB: ½
[6]; A. niger, with NaTetraBorate
  Reduced PhlB: ½
[8]; C. lunata, with Ammonium sulfate
  Reduced PhlB: ⅛ and ¼ and ½
[8]; C. lunata, with Fluorescein
  Reduced PhlB: ¼ and ½
[8]; C. lunata, with NaTetraBorate
  Reduced PhlB: ¼ and ½
[10]
  control of Gram(+) bacteria: control Gram(+) bacteria at millimolar to micromolar concentrations
[7]; [16]
  MIC at 24 hours in Light, PHL B: 125 µM and 125.36 µM and 62.68 µM
[7]; C. albicans, with Ammonium sulfate
  Reduced PhlB: 1/125 and 1/64 and 1/32 and 1/16 and ⅛ and ¼ and ½
[7]; C. albicans, with Fluorescein
  Reduced PhlB: 1/64 and 1/32 and 1/16 and ⅛ and ¼ and ½
[7]; C. albicans, with NaTetraBorate
  Reduced PhlB: 1/128 and 1/64 and 1/32 and 1/16 and ⅛ and ¼ and ½
